The target in one series is T1, HIV-1 integrase (Human immunodeficiency virus type 1 group M subtype B, UniProt P04585).
T1 construct: using the integrase coding domain from the HXB2 clone; made in house; host or cells: E. coli
The experiment in a line: Integrase inhibition assay (site-specific cleavage/joining of labeled oligonucleotide substrate). The settings on record: initial screening at 10 μM; assay in duplicate. Format: biochemical, HIV-1 (HXB2 clone). The procedure: Purification of Integrase Protein. Integrase was overproduced in E. coli from an inducible plasmid containing the integrase sequence under control of a lacI-regulated T7 polymerase using the integrase coding domain from the HXB2 clone of HIV-1 DNA (L. Ratner et al, AIDS Res. Hum. Retroviruses 3:57 (1987)), pT7fl1-IN. A one liter culture at an O.D. of 0.6 was induced by the addition of IPTG to 0.5 mM. After three hours, the cells were harvested by centrifugation and the pellets were stored at -70° C.
The integrase protein was purified by a modification of the method of Sherman and Fyfe, Proc. Natl. Acad. Sci. USA 87:5119 (1990). The cells were lysed by thawing in a buffer (50 mM Tris-HCl pH 7.5, 5 mM dithiothreitol, 1 mM EDTA, 1 mg/ml lysozyme) on ice at 6 ml/g bacterial pellet for 30 minutes, and then incubating at 37° C. for 5 minutes. The lysate was centrifuged at 12,000×g for one hour. The pellets were resuspended in 50 mM Tris-HCl, pH 7.5, 1 mM dithiothreitol, 1 mM EDTA, 1M NaCl (4 ml/g original bacteria). The homogenate was stirred for 30 minutes at 4° C. and recentrifuged for 30 minutes at 12,000×g.
The supernatant was made 0.8M in ammonium sulfate by the slow addition of powder with stirring over a 30 minute period. The extract was then centrifuged to remove any precipitate and applied to a phenyl sepharose column. After a 50 ml wash with high salt buffer (50 mM Tris-HCl, 1 mM EDTA, 5 mM DTT, 2M NaCl), the protein was eluted with a gradient from high salt to O salt buffer containing 10% (weight/vol) glycerol and further purified through a G75 Sephadex column to remove background nuclease. A one liter culture generates enough integrase activity to perform over a thousand drug inhibition assays. […]
Cleavage of specific sites is assessed as described in Sherman et al., supra, except that the assay buffer was the same as that reported by Chow et al, Science 255:723 (1992). The substrate employed is the same as that described for use in the dumbell assay described in Chow et al., J. Virol. 68:7869 (1994), the disclosure of which is incoroprated herein by reference in its entirety. Essentially, the assay is performed with an oligonucleotide of 31 nucleotides that is self-annealing to form a dumbell shape with a nick therein. This substrate mimics the integrated virus and is specifically recognized by integrase to release 2 fragments. When the substrate is end-labeled with γ^32 P-ATP and T4 polynucleotide kinase, and treated with integrase protein, the product is site-specific cleavage of the substrate to form a very different molecular weight when electrophoresed on a denaturing polyacrylamide gel. This allows the reaction to be more easily quantitated with the phosphorimager. This assay represents the step of the integrase reaction where integrase completes its action. The IC50 value reported in Table 1 is generated by regression analysis of the percent control reaction with integrase at various drug concentrations. Initial screening of the compounds was performed at a constant 10 μM concentration for each test compound. Those with activity at 10 μM, were then used to identify IC50 values.
The other assay used consisted of the single 20 mer oligonucleotides corresponding to either the U5 or U3 ends of HIV-1 are end-labeled with ^32 P, annealed with its complement, purified, and used under the same conditions as described above for the endonuclease assay. Reaction products are denatured with formamide, electrophoresed through 20% denaturing polyacrylamide gels and visualized by autoradiography. Both cleavage and ligation activity can be assessed from one gel. To assess the ligation activity alone, "precleaved" substrate that had the -2 cleavage artificially produced by using a radiolabelled 18 mer oligonucleotide was also used for some experiments
Testing as Integrase Inhibitors. Integrase overproduced in E. coli was purified as described above in accordance with Sherman et al, supra, and used in drug inhibition assays. […]

A further series is described as follows: in vitro. The settings on record: human, cem and magic cells. In kind it is cell-based. The method, then:
(§1) Cell lines used were CEM cells, a human T-cell lymphona cell line, A. Kaplan et al, J. Virol. 67:4050-5 (1993), and Magic cells, J. Kimpton et al, J. Virol. 66:2232 (1992). The CEM cells were grown in RPMI-1640 medium supplemented with 5% FCS. The Magic Cells, a HELA derivative, were grown in DMEM/H supplemented with 5% FCS, G418 (20 mg/ml) and Hygromycin (10 mg/ml). The HIV isolate was strain HXB2, originally from Lee Ratner in the laboratory of Robert Gallo at the National Institutes of Health.
Three different toxicity tests were performed on the cell lines used to measure virus infectivity.
The initial test for toxicity utilized the XTT Assay as described by Weislow et al, J. Natl. Cancer Inst. 81:577 (1989). This is the standard assay used originally to measure cell toxicity by potential reverse transcriptase inhibitors. Briefly, cells were grown to cells/ml and drug dilutions were added to the medium. After two days incubation, XTT reagent is added and incubation is continued for 4 hours at 37° C. Following incubation, the plates are read at 450 minus 650 nm (the 650 value is the backround value which is automatically subtracted) with controls of media+XTT reagent without cells, and cells+media without reagent. Also a control of cells+media+XTT reagent was run for each plate. Medium without phenol red was employed to minimize background color as the XTT reagent goes from colorless (unreduced) to orange (reduced). The XTT reagent was freshly prepared on the day of assay as follows: 1 mg/ml of XTT in 0.01M phenazine methosulfate. The phenazine methosulfate solution was prepared ahead of time and stored at 4° C. in a dark bottle. The XTT reagent is added to the microtiter wells at 24 ul per 100 ul of medium. The O.D. was measured on a Vmax plate reader from Molecular Devices Co. with data reduction. Results are expressed as percent of untreated controls. The least toxic compounds were Compounds A, B, and F with toxicities values at 500 μM or greater.
Next, a plating efficiency test measured the ability of the cell to grow after incubation with drug for a number of days. Magic cells were grown from an initial cell concentration of 0.8×104 with or without various concentrations of test compound for 6 days. Plating ability of the cells was assessed by plating dilutions of each culture on plastic. Colony forming units were determined after growth for two to four days by counting colonies after staining the plates. Each sample was plated in duplicate and the colony number averaged.
The third test for cell toxicity assessed growth rate in the presence of the test compound versus a control culture. Magic cells were grown over a period of 15 days with or without various dilutions of test compound. Aliquots were removed every other day and the cells were counted in a hemocytometer.

Another series relates to HIV-1. Briefly: HIV-1 inhibition assay in magic (magi) cells, β-galactosidase expressing cells counted. In kind it is cell-based, HIV-1 strain HXB2. The note with it: for IC50: Human immunodeficiency virus 1, MAGI, magic cells, HIV-1, drug pretreatment 4 hours, fixed two days later, read-out: Anti-HIV IC50; for Index TD50/IC50: ratio of toxicity TD50 to anti-HIV IC50. The method, then:
as §1
The magi cell assay described by Kimpton et al., supra, was used as described. This assay identifies individual cells infected with HIV-1 by the expression of tat, which transactivates an endogenous copy of the HIV-1 LTR linked to the lac2 reporter gene after integration, inducing β-galactosidase expression when Xgal is added to the cell medium. Any cell with integrated HIV-1 will turn blue. Thus, this assay provides a convenient way to determine the effect of HIV inhibitors at any early step up through the expression of tat, including the inhibition of integration.
The magic cells are plated in twelve-well plates one day prior to infection. The standard assay involves infection with approximately 200 infectious units of HIV-1. This gives an approximately 20 to 1 ratio of signal to background and sufficient numbers of infectious events to quantitate dim effects. The cells are pretreated with drug for 4 hours prior to virus infection, and virus adsorption takes place for 1 hour. The cells are washed with plain medium, and then medium with inhibitor is placed back on the cells. Two days later the cells are fixed after integration with Xgal the indicator reagent for β-galactosidase production. The number of β-galactosidase expressing cells are quantitated by light microscopy.
The results of comparisons of infectious units with or without various concentrations of the bis-benzimididazoles drugs in the magic cell assay are expressed as IC50 values and are compiled in Table 2 above. Note that the best anti-HIV compounds were generally also the best integrase inhibitors.

With `N=C(N)c1ccc2nc(-c3cccc(-c4nc5ccc(C(=N)N)cc5[nH]4)c3)[nH]c2c1` [S-1], the IC50 at HIV-1 integrase is 1 µM. In “in vitro”, this molecule had a CC50 of 40 µM.
`c1cc(-c2nc3cc(C4=NCCN4)ccc3[nH]2)cc(-c2nc3cc(C4=NCCN4)ccc3[nH]2)c1` [S-2]: the IC50 on HIV-1 integrase is over 10 µM.
On HIV-1 integrase, `CC(C)NC(=N)c1ccc2nc(-c3ccc4c(c3)Cc3cc(-c5nc6ccc(C(=N)NC(C)C)cc6[nH]5)ccc3-4)[nH]c2c1` [S-3] displayed an IC50 of under 10 µM.
As for `CC(C)NC(=N)c1ccc2nc(-c3cnc(-c4nc5ccc(C(=N)NC(C)C)cc5[nH]4)o3)[nH]c2c1` [S-4], the IC50 against HIV-1 integrase was under 10 µM.
For the molecule `N=C(N)c1ccc2nc(-c3ccc4oc(-c5nc6ccc(C(=N)N)cc6[nH]5)cc4c3)[nH]c2c1` [S-5], the IC50 is under 10 µM on HIV-1 integrase and 19.8 µM in the series with HIV-1.
As to `N=C(NC1CCCC1)c1ccc2nc(-c3ccc4oc(-c5nc6ccc(C(=N)NC7CCCC7)cc6[nH]5)cc4c3)[nH]c2c1` [S-6], the half-maximal inhibitory concentration (IC50) at HIV-1 integrase was 1.4 µM.
Turning to `Cn1c(-c2nc3ccc(C(=N)N)cc3[nH]2)ccc1-c1nc2ccc(C(=N)N)cc2[nH]1` [S-7], it took 0.85 µM to reach half-maximal inhibition against HIV-1 integrase (IC50). The molecule further yielded a CC50 in “in vitro” of 90.3 µM.
Consider `N=C(N)c1ccc2nc(-c3ccc(-c4nc5ccc(C(=N)N)cc5[nH]4)[nH]3)[nH]c2c1` [S-8], for which half-maximal inhibition at HIV-1 integrase (IC50) required 0.5 µM.
Molecule `c1cc2[nH]c(-c3ccc(-c4nc5cc(C6=NCCN6)ccc5[nH]4)[nH]3)nc2cc1C1=NCCN1` [S-9] gave an IC50 against HIV-1 integrase of over 10 µM. Besides, the CC50 in the series “in vitro” stood at 213 µM.
`c1cnc(-c2ccc3nc(-c4ccc(-c5nc6ccc(-c7ncccn7)cc6[nH]5)[nH]4)[nH]c3c2)nc1` [S-10]: at HIV-1 integrase, the concentration for half-maximal inhibition (IC50) was under 10 µM.
In turn, `Cn1c(-c2nc3ccc(C(=N)NC4CCCC4)cc3[nH]2)ccc1-c1nc2ccc(C(=N)NC3CCCC3)cc2[nH]1` [S-11] registered an IC50 on HIV-1 integrase of over 10 µM. This molecule had a half-maximal cytotoxic concentration (CC50) in “in vitro” of 732 µM.
In the same order, the values of `CC(C)NC(=N)c1ccc2nc(-c3ccc(-c4nc5ccc(C(=N)NC(C)C)cc5[nH]4)n3C)[nH]c2c1` [S-12] are under 10 µM and 289 µM.
With `N=C(NC1CCCC1)c1ccc2nc(-c3ccc(-c4nc5ccc(C(=N)NC6CCCC6)cc5[nH]4)[nH]3)[nH]c2c1` [S-13], the concentration for half-maximal inhibition (IC50) at HIV-1 integrase is under 5 µM. This molecule had a half-maximal cytotoxic concentration (CC50) in “in vitro” of 78.2 µM.
As to `N=C(N)c1ccc2nc(-c3ccc(-c4nc5ccc(C(=N)N)cc5[nH]4)o3)[nH]c2c1` [S-14], the concentration for half-maximal inhibition (IC50) against HIV-1 integrase stood at 0.9 µM. In the series on HIV-1, the IC50 was 26.7 µM and the “Index TD50/IC50” value amounted to 3.05. Moreover, it took 81.5 µM to reach half-maximal cytotoxicity in “in vitro” (CC50).
As to `c1cc2nc(-c3ccc(-c4nc5ccc(C6=NCCN6)cc5[nH]4)o3)[nH]c2cc1C1=NCCN1` [S-15], the IC50 at HIV-1 integrase stood at 0.6 µM. In the series with HIV-1, the IC50 amounted to 8.01 µM and the “Index TD50/IC50” value is 5.23. This molecule also came in with a CC50 in “in vitro” of 41.9 µM.
`CC(C)NC(=N)c1ccc2nc(-c3ccc(-c4nc5ccc(C(=N)NC(C)C)cc5[nH]4)o3)[nH]c2c1` [S-16]: the half-maximal inhibitory concentration (IC50) against HIV-1 integrase is under 10 µM; in the series with HIV-1, 1.39 µM. In the series on HIV-1, the “Index TD50/IC50” value is listed as 170.88. This molecule also showed a half-maximal cytotoxic concentration (CC50) in “in vitro” of 238 µM.

By IC50 is commonly meant the concentration at which inhibition is half-maximal. In general, CC50 refers to the concentration that lowers cell viability or growth by half. High values mean lower toxicity to the cells, low ones greater toxicity to the cells.

The values are drawn from US5935982A, “Methods of treating retroviral infection and compounds useful therefor” (The University of North Carolina at Chapel Hill, priority 1997, dated 1999).
